According to patent publication US20260191969A1, “COMPOSITION CONTAINING ANIONIC LONG-CHAIN LIPID TO BE USED FOR ATTENUATING SKIN BARRIER FUNCTION, AND DISPERSION CONTAINING COMPLEX COMPRISING CATIONIC LONG-CHAIN LIPID, ANIONIC LONG-CHAIN LIPID AND DRUG DISPERSED THEREIN” (KYUSHU UNIVERSITY, NATIONAL UNIVERSITY CORPORATION, priority 2022, published 2026):
Strand notation (5' to 3'): a small letter for the sugar, then the base; units joined by * are phosphorothioate-linked, units joined directly phosphodiester-linked; [ ] holds rarer units or linkages, { } end groups; capitals alone tell only the bases. l = locked nucleic acid (LNA); [5mC] = 5-methylcytosine; d = 2'-deoxy (DNA)

Test system: SNORA23
Assay: knock-down of target RNA after transdermal or subcutaneous administration to tumor-bearing mice (RT-PCR)
Format: in vivo
Settings: for expression level of the target RNA (SNORA23): 250 μg ASO in 50 μL, two days after, skin, subcutaneous tumor, liver, FIG. 34
Description: A formulation targeting SNORA23 was prepared. To mice, 3×10^6 ES2 ovarian carcinoma cells were subcutaneously transplanted, and the formation of subcutaneous tumor was checked 1 week after that. To the top (1 cm×1 cm) of a tumor or into the periphery of a tumor, 50 μL of hybrid particles containing 250 μg of ASO targeting SNORA23 was applied or subcutaneously injected. For the transdermal administration group, protective tape was wound once around the trunk including the administration site.
Two days after the administration, the skin, subcutaneous tumor, and liver were isolated, and total RNA was extracted. The level of targeted RNA (SNORA23) was quantified, and the presence or absence of reduction in the expression level was examined by an RT-PCR method.

Substance: 5′-GAAacctatgmCAmCa-3′ (lG*lA*lA*dA*dC*dC*dT*dA*dT*dG*l[5mC]*lA*l[5mC]*dA) [ASO]
- knock-down of target RNA in the liver (irrespective of the route of administration, suggests migration of ASO into blood): knock-down effect
- expression level of the target RNA (SNORA23) (subcutaneous administration): Reduction of the expression level of the target RNA was induced
- expression level of the target RNA (SNORA23) (transdermal administration): Reduction of the expression level of the target RNA was induced
